Data set [1] deals with rat. The note with it: Multigenerational reproductive toxicity study, sprague dawley, Oral, Feed, dose end: 3 generation.
In data set [2] the test system is rat. The note with it: Combined chronic toxicity/carcinogenicity, fischer, Oral, Feed, dose end: 105 week, group: systemic.
Data set [3] deals with mouse. The note with it: Combined chronic toxicity/carcinogenicity, b6c3f1, Oral, Feed, dose end: 105 week, group: systemic.
Data set [4] deals with rat. The note with it: Prenatal developmental toxicity study, fischer, Oral, Feed, dose end: 20 GD.
The test system of data set [5] is rat. The note with it: Subchronic oral toxicity in rodents, sprague dawley, Feed, dose end: 13 week, group: systemic, systemic / clinical chemistry / alanine aminotransferase (alt/sgpt) / alanine aminotransferase (alt/sgpt) + systemic / clinical chemistry / ….
The test system of data set [6] is mouse. As to conditions: Developmental neurotoxicity study; cd1; Oral; Feed; dose end: 63 PND; group: cannot be grouped; reproductive / offspring survival early / dead fetuses / dead fetuses.
Data set [7] has as its system rat. As to conditions: Carcinogenicity, fischer, Oral, Feed, dose end: 100 week, group: systemic.
Data set [8] relates to mouse. As to conditions: Carcinogenicity; b6c3f1; Oral; Feed; dose end: 101 week; group: systemic; systemic / in life observation / body weight / body weight + systemic / pathology microscopic / urinary bladder / inflammation.
For data set [9], the system named is rat. As to conditions: Subchronic oral toxicity in rodents, fischer, Feed, dose end: 11 week, group: systemic, systemic / in life observation / body weight / body weight.
For another data set, the system named is rabbit. As to conditions: Subchronic dermal toxicity, new zealand white, Topical, dose end: 13 week, group: systemic, systemic / in life observation / clinical signs / erythema + systemic / pathology gross / skin / [other] + systemic / pathology microscopic….
The mark [10] stands for this setting: group: offspring, developmental / developmental landmark / vaginal opening / vaginal opening + systemic / in life observation / body weight / offspring (pup) ….
The mark [11] stands for this setting: group: parental, systemic / in life observation / body weight / body weight + systemic / organ weight / kidney / absolute + systemic / organ weight / kidney….
Setting [12] is: group: reproductive, reproductive / reproductive performance / fertility / fertility + reproductive / offspring survival early / litter size / litter size.
The mark [13] stands for this setting: systemic / in life observation / body weight / body weight gain.
Setting [14] is: systemic / pathology microscopic / testes / degeneration + systemic / pathology microscopic / liver / carcinoma.
[15] abbreviates: group: developmental, systemic / in life observation / body weight / fetal weight.
The mark [16] stands for this setting: group: maternal, systemic / in life observation / body weight / body weight + systemic / in life observation / body weight / body weight gain + systemic / ….
The mark [17] stands for this setting: group: maternal, systemic / organ weight / liver / absolute + systemic / organ weight / liver / relative to body weight + systemic / in life observation / ….
Setting [18] is: systemic / in life observation / body weight / body weight + systemic / pathology gross / eye / opacity.

Consider `CCCCC(CC)COC(=O)c1ccccc1C(=O)OCC(CC)CCCC` (stereo not given) [Di(2-ethylhexyl) phthalate], for which the LEL in the data set with rat [1] (setting [10]) was found to be 391 mg/kg/day; with rat [1] (group: parental, systemic / organ weight / liver / relative to body weight + systemic / pathology microscopic / kidney / dilatation + systemic / pathology …) it was 48 mg/kg/day; with rat [1] (setting [12]), 391 mg/kg/day; in the data set with rat [2] (setting [13]), 300 mg/kg/day; in the data set on mouse [3] (setting [14]), 900 mg/kg/day; with rat [4] (setting [15]), 666 mg/kg/day. Moreover, the LEL in the data set with rat [4] (setting [17]) was 357 mg/kg/day; in the data set on rat [5], 0.25 mg/kg/day; in the data set with mouse [6], 171 mg/kg/day. The LOAEL is greater than 391 mg/kg/day with rat [1] (setting [10]); greater than 391 mg/kg/day with rat [1] (setting [11]); greater than 391 mg/kg/day in the data set on rat [1] (setting [12]); 600 mg/kg/day in the data set with rat [2] (systemic / in life observation / body weight / body weight gain + systemic / pathology microscopic / testes / degeneration); 900 mg/kg/day in the data set on mouse [3] (systemic / pathology microscopic / testes / degeneration); 666 mg/kg/day in the data set with rat [4] (setting [15]). The LOAEL in the data set with rat [4] (setting [16]) was 666 mg/kg/day; in the data set on rat [5], greater than 250 mg/kg/day. Further, the NEL is 48 mg/kg/day with rat [1] (setting [10]); 14 mg/kg/day in the data set with rat [1] (setting [11]); 48 mg/kg/day in the data set with rat [1] (group: reproductive, reproductive / reproductive performance / fertility / fertility); less than 300 mg/kg/day in the data set on rat [2] (setting [13]); 450 mg/kg/day in the data set with mouse [3] (systemic / pathology microscopic / liver / carcinoma + systemic / in life observation / body weight / body weight + systemic / in life …); 357 mg/kg/day in the data set on rat [4] (setting [15]). The NEL is less than 357 mg/kg/day in the data set with rat [4] (setting [17]), less than 0.25 mg/kg/day in the data set on rat [5] and 56 mg/kg/day in the data set with mouse [6]. The NOAEL in the data set on rat [1] (setting [10]) is no less than 391 mg/kg/day; with rat [1] (setting [11]) it was no less than 391 mg/kg/day; in the data set on rat [1] (setting [12]), no less than 391 mg/kg/day; with rat [2] (systemic / in life observation / body weight / body weight gain + systemic / pathology microscopic / liver / carcinoma + systemic / in life …), 300 mg/kg/day; in the data set with mouse [3] (setting [14]), 450 mg/kg/day; with rat [4] (setting [15]) it was 357 mg/kg/day. Further, the NOAEL was 357 mg/kg/day in the data set with rat [4] (setting [16]) and no less than 250 mg/kg/day in the data set with rat [5].

For `O=NN(c1ccccc1)c1ccccc1` [N-Nitrosodiphenylamine], the results for the LEL with rat [7] (setting [18]), in the data set on mouse [8] and with rat [9] were 50 mg/kg/day, 347 mg/kg/day and 200 mg/kg/day, respectively. Further, the results for the NEL with rat [7] (setting [18]) and in the data set with mouse [8] were less than 50 mg/kg/day and less than 347 mg/kg/day, respectively. In addition, the LOAEL with rat [7] (systemic / pathology microscopic / urinary bladder / hyperplasia) was found to be 200 mg/kg/day; in the data set on mouse [8], 347 mg/kg/day; in the data set with rat [9], 200 mg/kg/day. For the same compound, the NOAEL in the data set with rat [7] (systemic / pathology microscopic / urinary bladder / hyperplasia + systemic / in life observation / body weight / body weight + systemic / …) was 50 mg/kg/day; in the data set on mouse [8], less than 347 mg/kg/day.

Consider `O=C([O-])c1ccc2ccccc2c1.O=C([O-])c1ccc2ccccc2c1.[Zn+2]` [Zinc naphthenate], for which the NOAEL in the data set on rabbit was less than 100 mg/kg/day.

In general, LOAEL refers to the lowest dose or exposure tested at which an adverse effect was seen. The NOAEL is the highest tested level that showed no adverse finding.

These data come from EPA's ToxRefDB 2.
